Here are results for one molecule from patent US20070081978A1, “Adeno-associated virus-mediated survivin mutants and methods related thereto” (priority 2005, published 2007).

For data set [1], the system named is SW1116 cells. As to the kind of experiment: Drug-induced apoptosis by FACS analysis (Table 1). It is filed as cell-based, Human. The settings on record: rAAV 1×10^5 viral particle/cell, or followed by 10 μg/ml 5-fluorouracil for 72 hour; mean ± SEM. The protocol:
Cells were collected and fixed in ice-cold 70% ethanol in PBS and stored at −20° C. before use. After re-suspension, cells were washed and incubated with 100 μl of RNase I (1 mg/ml) and 100 μl of propidium iodide (400 μg/ml; Sigma) at 37° C. for 30 min. Samples were analyzed by flow cytometry (Coulter, Luton). The cell-cycle phase distribution was calculated from the resultant DNA histogram using Multicycle AV software (Phoenix Flow Systems, San Diego, Calif.). Cells with subdiploid DNA content were scored as apoptotic.
In general terms: A flow cytometer gives signals particle by particle.

The subject of data set [2] is SW1116 cells. As to the kind of experiment: Intratumoral rAAV gene therapy in colon cancer xenograft model: tumor growth. Format: in vivo, BALB/c nude mice. The settings on record: rAAV 5×10^10 particles/site, 3 sites; 5-FU i.p. 50 mg/kg on each of 5 days. How it is done:
rAAV-Sur-Mut(Cys84Ala) inhibited tumor growth. (A) Untreated SW1116 cell were subcutaneously injected into the right flank of athymic female nude mice. Tumors were allowed to grow to approximately 100-150 mm^3 volume. Masses were injected in three sites with rAAV-Sur-Mut(Cys84Ala), rAAV-eGFP or rAAV-Sur(wt) at 5×10^10 viral particles/site of injection, or with PBS. Photographs were taken from representative mice 4 weeks after treatment. (B) Tumor growth was measured every week after injection. Data are the means±SEM of tumor size per mouse. (C) Tissue sections of formalin-fixed, paraffin-embedded xenograft tumors were stained by H&E, immunohistochemical stained for survivin or TUNEL stained for detection of apoptotic cells. Images were representative fields of view from tumors 5 days after treatment. (Original magnification ×200)
(§1) Five- to six-week-old female BALB/c nude mice were injected subcutaneously on the flanks with 2×10^6 exponentially growing SW1116 cells. Tumors were allowed to grow to 100˜150 mm^3 (5˜7 mm diameter). For local administration of rAAV, masses were injected in three sites with rAAV-Sur-Mut(Cys84Ala), rAAV-Sur(wt) or rAAV-EGFP at 5×10^10 viral particles/site of injection, or at each of the three site with PBS. Alternatively, mice were i.p. injected with 50 mg/kg 5-fluorouracil daily for 5 days, or a combination of rAAV virus and 5-Fluorouracil. Tumor growth was measured weekly after injection. In other experiments, mice received an injection of uninfected exponentially growing 2×10^6 SW1116 cells. After 7 days, mice were given an injection of same dosage of rAAV virus and 5-FU (3 animals/group). After 5 days, animals were euthanized, and their total tumor burden was excised, fixed and embedded in paraffin blocks for H&E, TUNEL and immunohistochemical staining, or tumors were snap-frozen in liquid nitrogen for CD31 staining.

Data set [3] has as its system SW1116 cells. Kind of data set: Survival of xenograft-bearing mice. It is filed as in vivo, BALB/c nude mice. The protocol:
rAAV-Sur-Mut(Cys84Ala) prolonged the survival of mice. (A) Masses were injected in three sites with rAAV-Sur-Mut(Cys84Ala), rAAV-Sur(wt) and rAAV-eGFP at 5×10^10 viral particles/site of injection, or in combination with 5-Fluorouracil for 5 days. Tumor xenografts were collected and tissue sections of formalin-fixed, paraffin-embedded xenograft were TUNEL stained for apoptosis. (B) Survival curve. The experimental conditions were as in (A) Survival was monitored every day, and tumor volume was measured every week after treatment. Definition of death is natural death due to tumor burden or killing due to tumor sizes (diameter) more than 2.5 cm.
as §1, with “After 7 days, mice were given an injection of same dosage of rAAV virus and 5-FU (3 animals/group). After 5 days, animals were euthanized, and their total tumor burden was excised, fixed and embedded in paraffin blocks for H&E, TUNEL and immunohistochemical staining, or tumors were snap-frozen in liquid nitrogen for CD31 staining.” left out

For `O=c1[nH]cc(F)c(=O)[nH]1` [5-FU, 5-fluorouracil], the “% Apoptosis” value in data set [1] worked out at 26.0 ± 3.4%. Besides, in data set [2], the “Number of mice with tumor regression” value is reported as 0/4, the Rate of inhibition is listed as 61.2% and the Tumor size is given as 606.3 ± 106.7 mm^3. Also, the “survival (comparison in words)” value in data set [3] (mouse, in vivo) is listed as “survived significantly longer than buffer-treated mice”. Further, the clinical symptoms result in data set [3] (tumor-bearing mice) is given as “developed severe symptoms related to tumor growth”.
